Like-named read-outs stand apart in the source and are kept apart here. Where no end group is shown, it is not given here. [ ]: non-standard residue; d: D form. pY = N[C@@H](Cc1ccc(OP(=O)(O)O)cc1)C(=O)O
Tests used:
[1] = test system: endogenous G6B-b; assay: Pull down of endogenous G6B-b from platelet lysate with purified SH2 domains; assay type: binding; conditions: washed human platelet lysates activated with CRP or thrombin
Method: These proteins were expressed in BL21(DE3) cells (Invitrogen) induced with 1 mM IPTG for 4 hours at 37°C. Bacteria were pelleted and washed in PBS/0.5 M NaCl prior to sonication in PBS/0.5 M NaCl, in the presence of protease inhibitor cocktail (Complete, EDTA-free, Roche). Soluble and insoluble fractions were separated by centrifugation at 30,000 g for 60 minutes. Soluble fractions containing tagged proteins were incubated for 1 hour at 4°C with end-over-end mixing in the presence of washed Ni-Sepharose (GE Lifesceinces, Little Chalfont, U.K.) supplemented with 40 mM imidazole or Amylose resin (NEB, Herts, U.K). […]
Based on this study, the N-terminal SH2 domains of both SHP-1 and SHP-2 should preferentially bind to the ITIM (central pY at position 211) while the C-terminal domains should associate with the ITSM (pY at position 237). […] The N-terminal SH2 domain of SHP-1 was insoluble and it was not possible to purify sufficient quantities for binding studies. […]
(A) Peptide associated material was isolated from pre-cleared lysates separated on 4–12% NuPage Bis-Tris gels; proteins identified by Western Blotting (representative blots, n = 3). […] Bound material was separated from unbound material by SDS-PAGE and quantified (n = 3, SEM, ** denotes p<0.01, * denotes p<0.05). […]

[2] = test system: G6B-b dual phosphopeptide; assay: SPR (BIAcore 3000) of SHP-1/SHP-2 tandem SH2 domains over immobilised G6B-b phosphopeptide; assay type: binding, human; conditions: for Koff / Kd: HBS pH 7.4, 37°C, 50 µl/min; for Koff: Prism 5; for Kd: KD = Koff/Kon
Method: (§1) Experiments were conducted on a BIAcore™ 3000 in HBS buffer (0.01 M HEPES, pH 7.4, containing 0.15 M NaCl, 3 mM EDTA, and 0.005% v/v P-20, GE Life Sciences, Amersham, UK). Streptavidin was coupled to a research grade CM5 chip (GE Life Sciences, Amersham, UK) as previously described, [13]. Protein-peptide interactions were carried out a rate of 10 µl/min at a constant temperature of 37°C to more accurately reflect physiological conditions. Biotinylated peptides were bound to the streptavidin-coated CM5 chips at 37°C to between 25–50 RU [14]. Purified monomeric SH2 domains were passed over the immobilised peptides at a range of concentrations. Anti-phosphotyrosine monoclonal antibody (Sigma, Poole, U.K.) was passed over the chip to saturation at the end of each experiment to verify peptide coverage on the chip. Binding affinities for the single ITIM/ITSM peptides were determined by plotting equilibrium binding measurements (RU) against SH2 domain protein concentration (Origin 8, OriginLab, MA, USA). KD was defined as the concentration of SH2 protein that gave half maximal binding to the peptide. For the 60-mer peptides, SH2 domains were passed over the chip surface at 50 µl/min. KD was determined as Koff/Kon, which were determined using both GraphPad Prism 5.0 (GraphPad, La Jolla, CA, USA) and BIAevaluation Software (GE Life Sciences, Amersham,UK).
Previous studies have shown that using single phosphomotifs (isolated from sequences in which they may exist in tandem) and single SH2 domains can be misleading, [16]. We, therefore, assessed phosphatase-G6B-b interactions in more detail using the tandem SH2 domains of both SHP-2 (Figure 4A) and SHP-1 (Figure 4B). We kinetically determined the binding affinity (KD = koff/kon) by SPR at physiological temperatures.

[3] = biological target: T1, N-terminal SH2 domain of SHP-2 (Homo sapiens, UniProt Q06124); assay: SPR (BIAcore 3000), single N-terminal SH2 domain of SHP-2; assay type: binding; conditions: HBS pH 7.4, 37°C, 10 µl/min
T1 construct: SHP-2 (N)SH2 (His-tag) (OMC #3912); His-tag; host or cells: E. coli BL21(DE3)
T1 sequence (Q06124 6-102 limits assumed): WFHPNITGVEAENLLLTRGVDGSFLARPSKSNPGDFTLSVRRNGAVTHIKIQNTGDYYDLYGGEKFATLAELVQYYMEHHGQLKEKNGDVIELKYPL
Method: These proteins were expressed in BL21(DE3) cells (Invitrogen) induced with 1 mM IPTG for 4 hours at 37°C. Bacteria were pelleted and washed in PBS/0.5 M NaCl prior to sonication in PBS/0.5 M NaCl, in the presence of protease inhibitor cocktail (Complete, EDTA-free, Roche). Soluble and insoluble fractions were separated by centrifugation at 30,000 g for 60 minutes. Soluble fractions containing tagged proteins were incubated for 1 hour at 4°C with end-over-end mixing in the presence of washed Ni-Sepharose (GE Lifesceinces, Little Chalfont, U.K.) supplemented with 40 mM imidazole or Amylose resin (NEB, Herts, U.K). Proteins were eluted according to the manufacturer's instructions and purified by size exclusion chromatography on an AKTApurifier (GE Lifesciences, Little Chalfont, U.K).
as §1, with “For the 60-mer peptides, SH2 domains were passed over the chip surface at 50 µl/min.” left out

[4] = test system: G6B-b tyrosine phosphorylation; assay: G6B-b tyrosine phosphorylation in washed human platelets (4G10 staining); assay type: cell-based; conditions: for state of G6B-b phosphorylation: PP2 5 µM, PP3 5 µM or pervanadate, 10 minutes; for G6B-b tyrosine phosphorylation: 1 µg/ml CRP, 5 minutes, 4G10 staining, n = 4
Method: One microgram of antibody was bound to 10 µl of Protein A-sepharose (20 µl of a 50% slurry), in a final volume of 100 µl PBS, by incubation on a rotating wheel for 90 minutes at 4°C. Washed human platelets were incubated with either Tyrodes, 5 µM PP2, 5 µM PP3 or pervanadate for 10 minutes, after which they were pelleted and lysed in DP lysis buffer (20 mM Tris pH 7.5, 150 mM NaCl, 5 mM NaOV4, 1× Complete Protease Inhibitor (Roche) and 5% w/v n-Dodecyl-β-D-maltoside (Calbiochem)) such that each IP sample received 4×10^8 platelets in a final volume of 100 µl DP lysis buffer. Samples were mixed on a rotating wheel at 4°C for 1 hour. Samples were washed once in 200 µl DP lysis buffer and twice in 1 ml PBS prior to boiling in Laemmli buffer for 5 minutes.
We wanted to determine whether SHP-2 could associate with the receptor in human platelets as this interaction could relate to receptor function and regulation of GPVI signalling. […] In the absence of receptor agonists, we carried out co-immunoprecipitation experiments in platelet lysates treated with the SFK inhibitor, PP2, its non-active analogue, PP3, or the tyrosine phosphatase inhibitor, pervanadate. […] Under these conditions, isolation of […] by immunoprecipitation was robust (Figure 1B, top panel).
(A) Washed human platelets were incubated under stirring, but non-aggregating, conditions with the SFK inhibitor, PP2, or DMSO, prior to the addition of 1 µg/ml CRP or Tyrodes buffer. Samples were collected after 5 minutes. Tyrosine phosphorylation was detected by 4G10 staining (top panel, n = 4). […] (B) G6B-b co-immunoprecipitates with […] in pervanadate-treated washed human platelets.

[5] = test system: washed human platelets (CRP); assay: Light transmission aggregometry of TAT-peptide-loaded platelets, CRP; assay type: cell-based; conditions: vehicle (DMSO) control; light transmission aggregometry
Method: (§2) Whole blood was taken from healthy volunteers and collected into 50 ml syringes containing 5 ml acid citrate-dextrose (ACD) in accordance with procedures approved by the Local Research Ethics Committee (Ref: 07/Q1603/17). Platelet-rich plasma (PRP) was isolated by centrifugation at 200 g for 10 minutes at room temperature. PRP was pooled and 10 µg PGI2 was added before centrifugation at 1000 g for 10 minutes at room temperature. Platelets were resuspended in 1 ml Tyrodes buffer (134 mM NaCl, 0.34 mM Na2HPO4, 2.9 mM KCl, 12 mM NaHCO3, 20 mM HEPES, 5 mM glucose, 1 mM MgCl2, pH 7.3) pre-warmed to 30°C and 150 µl ACD. The volume was adjusted to 25 ml with Tyrodes buffer, followed by 3 ml ACD and 1.25 µg PGI2. Cells were centrifuged at 1000 g for 10 minutes at room temperature and the resultant cell pellet was resuspended in 1 ml pre-warmed Tyrodes buffer before adjusting the volume to a final cell density of 4×10^8 cells/ml (aggregations) or 2×10^9 cells/ml (peptide pull downs). Where appropriate, 1 mM EGTA, 10 µM indomethacin and 2 U/ml apyrase were added to inhibit aggregations (referred to as non-aggregating conditions).
(§3) Fluorescein-labelled, TAT-G6B-b peptides were synthesised by Peptide Protein Research Ltd (Hampshire, U.K.). Peptides were either unphosphorylated, or phosphorylated at both ITIMs as follows: Dual phosphorylated peptide – FLUO- […]*[…]*AVVV or unphosphorylated control peptide (lacking tyrosine phosphorylation) - FLUO- […]. TAT sequences are underlined and phosphorylated tyrosines marked with an asterisk. Peptides were loaded into washed platelets by incubation with 10 µM peptide for 15 minutes at 30°C, after which they were assessed by light transmission aggregometry. Peptide loading conditions were optimised and verified by flow cytometry.
(§4) Washed human platelets were loaded with TAT-G6B-b peptides (either dual phosphorylated or unphosphorylated) and changes in CRP efficacy determined by light transmission aggregometry. […] Thrombin-mediated activation was unaffected (data not shown). […] Peptide loading was verified by flow cytometry (Figure 9C and 9D.

[6] = test system: washed human platelets (collagen); assay: Light transmission aggregometry of TAT-peptide-loaded platelets, collagen; assay type: cell-based; conditions: vehicle (DMSO) control; light transmission aggregometry
Method: as §2, §3, §4

With “SHP-2: SHP-2 (N+C)SH2 domains, recombinant” the “isolation of endogenous G6B-b” value [1] was “able to isolate G6B-b from platelet lysate”, the “fold higher binding affinity of SHP-2 tandem SH2 domains than single N(SH2) domain” value ([2]; SPR, dual phosphopeptide) was “approximately 200 fold” and the Koff ([2]; tandem SH2 domains 0.1 nM) was 0.0720 s⁻¹. For the same molecule, the Kd ([2]; tandem SH2 domains 0.1 nM) was 0.474 nM, the Koff ([2]; tandem SH2 domains 1 nM) was 0.1660 s⁻¹ and the Kd ([2]; tandem SH2 domains 1 nM) was 0.624 nM. It also gave a Koff ([2]; tandem SH2 domains 10 nM) of 0.0206 s⁻¹, a Kd ([2]; tandem SH2 domains 10 nM) of 0.145 nM and a Koff ([2]; tandem SH2 domains 100 nM) of 0.0144 s⁻¹. It also gave a Kd ([2]; tandem SH2 domains 100 nM) of 0.528 nM, a Koff ([2]; tandem SH2 domains 1000 nM) of 0.0106 s⁻¹ and a Kd ([2]; tandem SH2 domains 1000 nM) of 0.634 nM.
Work on “PLVKTEPQRPVKEEEPKIPGDLDQEPSLLYADLDHLALSRPRRLSTADPADASTI[pY]AVVV [pY237]” yielded a Kd ([3]; read-out: KD, estimated by fixing maximum binding) of 10000 nM.
pervanadate was tested, and the “state of G6B-b phosphorylation” value [4] was “maximal phosphorylation”.
In the case of `Nc1ncnc2c1cnn2-c1ccccc1` [PP3], the “G6B-b tyrosine phosphorylation” value [4] is reported as “no effect on tyrosine phosphorylation” and the “state of G6B-b phosphorylation” value [4] is reported as “partial/sub-maximal”.
Molecule “PLVKTEPQRPVKEEEPKIPGDLDQEPSLL[pY]ADLDHLALSRPRRLSTADPADASTIYAVVV [pY211]” has a Kd ([3]; equilibrium binding, single site fitting, read-out: KD) of 110 nM.
“collagen-related peptide [CRP, reference compound]” was tested, and the “EC50 of CRP, vehicle control platelets” value [5] was 0.4 µg/mL.
With collagen [reference compound] the “EC50 of collagen, vehicle control platelets” value [6] was 0.4 µg/mL.
With “SHP-1: SHP-1 (N+C)SH2 domains, recombinant” the “isolation of endogenous G6B-b” value [1] was “able to isolate endogenous G6B-b from platelet lysate”, the Koff ([2]; tandem SH2 domains 0.1 nM) was 0.0104 s⁻¹ and the Kd ([2]; tandem SH2 domains 0.1 nM) was 43.3 nM. For the same molecule, the Koff ([2]; tandem SH2 domains 1 nM) was 0.01106 s⁻¹, the Kd ([2]; tandem SH2 domains 1 nM) was 42.5 nM and the Koff ([2]; tandem SH2 domains 10 nM) was 0.01141 s⁻¹. The Kd ([2]; tandem SH2 domains 10 nM) was 20.3 nM, the Koff ([2]; tandem SH2 domains 100 nM) was 0.01025 s⁻¹ and the Kd ([2]; tandem SH2 domains 100 nM) was 32 nM. It also gave a Koff ([2]; tandem SH2 domains 1000 nM) of 0.00892 s⁻¹.
`CC(C)(C)n1nc(-c2ccc(Cl)cc2)c2c(N)ncnc21` [PP2] was tested, and the “G6B-b tyrosine phosphorylation” value [4] was “reduced the G6B-b tyrosine phosphorylation in response to CRP” and the “state of G6B-b phosphorylation” value [4] was “non-phosphorylation”.
